This passage reports IC50 results from USRE43038E1, “Compound having antitumor activity and process for producing the same” (Riken, priority 2002, dated 2011).

For this assay, the system named is SH-SY5Y cells of human neuroblastoma. Put plainly: MTT growth inhibition of SH-SY5Y human neuroblastoma cells. It counts as cell-based. Particulars: DMEM with 5% fetal bovine serum, 48 hours culture at 37° C., absorbance at 570 nm, read-out: 50% growth-inhibiting concentration. As to the method: SH-SY5Y cells of human neuroblastoma were cultured in DMEM medium (Dulbecco's modified Eagle medium) (containing 5% fetal bovine serum). Compound 1 of the present invention in a series of dilutions was added thereto and cultured at 37° C. under a 5% carbon dioxide atmosphere for 48 hours, followed by adding a MTT (3-(4,5-dimethyl-thiazol-2-yl)-2,5-diphenyl tetrazoliumbromide) reagent and further culturing for 2 to 4 hours. Absorbance at 570 nm was then measured to calculate the survival ratio.

Molecules are shown by their SMILES. Values after ≈ are worked out from the molar mass of the structure shown.

With `CC=C(/C=C(C)/C=C/CC/C=C(\C)C(=O)C12OC1C(C)(O)NC2=O)C(=O)OC(C)(C)C` (stereo not shown) [Compound 1, (3E,5E,9E)-tert-butyl-2-ethylidene-11-(4-hydroxy-4-methyl-2-oxo-6-oxa-3-aza-bicyclo[3.1.0]hex-1-yl)-4,10-dimethyl-11-oxounde ca-3,5,9-trienoate], the IC50 worked out at 0.4 µg/mL (≈ 0.927 µM).
